Experimental data published in patent US12485107B2, “Methods for the prevention or treatment of cytokine storm” (Beth Israel Deaconess Medical Center, Inc., priority 2019, dated 2025).
“Also recorded” adds a separate entry of the source.

Columns and labels:
[1] = system: RAW264.7 murine macrophages; experiment: Annexin V/PI cell death analysis of RAW264.7 macrophages; type: cell-based; settings: 5 μM, 24 hours, vs vehicle
Description: (§1) Murine (ID8) or human (OVCAR5) ovarian tumor cells were treated with vehicle or a chemotherapeutic agent (e.g., cisplatin, carboplatin, or paclitaxel) as described. B/CMBA.Ov murine ovarian epithelial cells were treated with vehicle or PTUPB (1 or 5 μM) for 24 hours. The floating population (e.g., dead cells or “debris”) was collected, and the remaining adhered cells were trypsinized and combined with the dead cells. RAW264.7 murine macrophages were treated with vehicle or PTUPB (5 μM) for 24 hours. The floating population was collected and the remaining adhered cells were detached using a cell scraper (Corning Inc., Corning, NY) and combined with the dead cells. Cells were counted via hemocytometer, pelleted, and resuspended in PBS at 1×10^6 cells/mL. Next, 2×10^5 cells were stained with annexin V and propidium iodide (PI) according to FITC Annexin V/Dead Cell Apoptosis Kit protocol (Life Technologies, Carlsbad, CA). Staining was assessed using the BD LSR Fortessa (BD Biosciences, San Jose, CA) at the Dana-Farber Cancer Institute Jimmy Fund Flow Cytometry Core, and analyzed using FlowJo software (Tree Star Inc., Ashland, OR). Experiments were performed three times with similar results.

[2] = system: B/CMBA.Ov murine ovarian epithelial cells; experiment: Annexin V/PI cell death analysis of B/CMBA.Ov cells; type: cell-based; settings: 5 μM, 24 hours, vs vehicle
Description: as §1

ID8 tumor cells = experiment: MTT proliferation assay; type: cell-based, murine; settings: 1-10 μM, 24 hours
Description: Cell Proliferation Kit 1 (MTT) (Roche, Basel, Switzerland) was used according to recommended protocol to quantify proliferation. ID8 cells were plated at 5×10^3 cells/well in 96-well plates with DMEM supplemented with 1% FBS and 1% GPS and incubated overnight. Cells were re-fed with DMEM supplemented with 1% FBS and 1% GPS and vehicle or PTUPB (1, 5, or 10 μM). After a 24 hour incubation at 37° C., 10 μL of MTT reagent was added to each well and incubated for 4 hours at 37° C. Next, 100 μL of solubilizing solution was added to each well and incubated overnight at 37° C. VersaMax microplate reader (Molecular Devices, San Jose, CA) was used to quantify the results of the assay. Absorbance readings were normalized to vehicle. Experiments were performed three times with similar results.

[3] = system: debris-stimulated intraperitoneal ovarian tumors (ID8); experiment: Debris-stimulated intraperitoneal ID8 ovarian tumor model, survival; type: in vivo, mice
Description: (§2) All animal studies were reviewed and approved by the Animal Care and Use Committee of Beth Israel Deaconess Medical Center, Boston, MA Mice were housed at a maximum of 5 animals per cage in a pathogen-free facility with unlimited access to sterile water and chow. Daily welfare evaluations and animal sacrifices were carried out according to the Committee guidelines. For murine injections, chemotherapy-generated murine (ID8) or human (OVCAR5) ovarian tumor cell debris was combined with ID8 or OVCAR5 living cells at equal volumes in PBS. Six-week-old female C57BL/6 (The Jackson Laboratory, Bar Harbor, ME) or SCID mice (Charles River, Cambridge, MA) were injected subcutaneously or intraperitoneally with 100 μL/mouse of ID8 or OVCAR5 cells, respectively. For orthotopic injections, 6-week-old C57BL/6 female mice were injected with 20 μL/mouse of matrigel (Becton Dickinson and Company, Franklin Lakes, NJ) mixed with paclitaxel-generated ID8 debris and/or ID8 living cells at a 1:1 (matrigel:cells) ratio directly into the right ovarian bursa. Systemic treatment with PTUPB (30 mg/kg/day) or control was administered via mini-osmotic pumps (Alzet Inc., Cupertino, CA) implanted into the peritoneum of the mice 4 weeks post-injection. Treatment ended 28 days after implantation of the pumps. Systemic chemotherapy with carboplatin (10 mg/kg q 3 days) or control that were initiated on the day of tumor cell injection.
Statistical analyses for in vitro studies were performed using Student's two-tailed unpaired t-test. Data are represented as mean±S.E.M. with p-values less than 0.05 considered statistically significant. For in vivo studies, the Kaplan-Meier product-limit method and log-rank testing were used to evaluate survival differences over time after the day of tumor cell injection between mice co-injected with tumor cell debris and living cells vs. living cells alone. Data are represented as percent survival with p-values less than 0.01 considered statistically significant.

[4] = system: debris-stimulated orthotopic ovarian tumor (ID8); experiment: Debris-stimulated orthotopic ID8 ovarian tumor model; type: in vivo, mice; settings: PTUPB 30 mg/kg/day
Description: as §2, with “Systemic chemotherapy with carboplatin (10 mg/kg q 3 days) or control that were initiated on the day of tumor cell injection.” left out

[5] = system: RAW264.7 murine macrophages; type: cell-based; settings: 5 μM, 2 hours pre-treatment
[6] = system: RAW 264.7 murine macrophages; experiment: Inflammatory cytokine array of RAW264.7 macrophages stimulated with ethanol-generated MS-1 endothelial cell debris; type: cell-based; settings: 5 μM (combination 2.5 μM each), 2 hours pre-treatment
[7] = system: RAW264.7 murine macrophages; type: cell-based; settings: RFU, percent increase above vehicle-treated macrophages
[8] = system: primary peritoneal murine macrophages; type: cell-based; settings: RFU, percent increase above vehicle-treated macrophages
[9] = kidney injury model; Hye Khan et al. 2016; cited from earlier work

For `NS(=O)(=O)c1ccc(-n2nc(CCCNC(=O)Nc3ccc(C(F)(F)F)cc3)cc2-c2ccccc2)cc1` [PTUPB, 4-(5-phenyl-3-{3-[3-(4-trifluoromethyl-phenyl)-ureido]propyl}-pyrazol-1-yl) benzenesulfonamide], the “induction of cell death of RAW264.7 macrophages” value [1] was “did not induce cell death”, the “induction of cell death of ovarian epithelial cells (B/CMBA.Ov)” value [2] was “did not induce cell death” and the “proliferation of ID8 tumor cells in vitro” value (ID8 tumor cells) was “inhibited proliferation”. The sustained survival ([3]; PTUPB 30 mg/kg/day by mini-osmotic pump from 4 weeks post-injection, paclitaxel- or carboplatin-generated ID8 debris + ID8 living cells i.p.) was “over 120 days post-injection”, the “survival compared to control (Kaplan-Meier, log-rank), paclitaxel-generated debris i.p. model” value ([3]; PTUPB 30 mg/kg/day, log-rank test=9.70, p=0.0018) was “significantly prolonged survival” and the “survival compared to control (Kaplan-Meier, log-rank), carboplatin-generated debris i.p. model” value ([3]; PTUPB 30 mg/kg/day, log-rank test=9.85, p=0.0017) was “significantly prolonged survival”. For the same molecule, the “debris-stimulated orthotopic ovarian tumor growth” value [4] was “suppressed debris-stimulated orthotopic ovarian tumor growth”, the “survival compared to control, paclitaxel-generated debris orthotopic model” value ([4]; log-rank test=7.91, p=0.005) was “significantly prolonged survival” and the “cytokine storm released by macrophages stimulated with aflatoxin B1-generated Hepa 1-6 debris” value [5] was “prevents the aflatoxin B1-induced cytokine storm; also recorded: able to inhibit; also recorded: prevented”. The “cytokine storm by ethanol-generated endothelial cell (MS-1) debris” value [6] was “inhibited”, the “macrophage phagocytosis of aflatoxin B1-generated tumor cell debris, RAW264.7” value [7] was “able to stimulate macrophage phagocytosis; also recorded: stimulates macrophage phagocytosis” and the “macrophage phagocytosis of aflatoxin B1-generated tumor cell debris, primary peritoneal murine macrophages” value [8] was “stimulates macrophage phagocytosis”. The “release of pro-inflammatory cytokines, such as CCL2/MCP-1” value [9] was “suppressed”.
